Columns and labels:
[1] = test system: Herpes Simplex Virus (HSV); settings: cited from earlier work
PARP2 = PARP2 (Mus musculus (Mouse), UniProt O88554); experiment: PARP2 autoparsylation assay (LC/MS detection of nicotinamide); assay type: biochemical; settings: 20 nM enzyme, 250 μM β-NAD+, 60 min
Experimental: (§1) The autoparsylation activity of the TNKS 1/2 or PARP1/2 enzymes was measured by the liquid chromatography-mass spectrometry (LC/MS) detection of nicotinamide as readout. Compound activity in inhibiting the TNKS and PARP autoparsylation was evaluated by IC50 measurements.

[2] = test system: Axin2 protein in SW480 cells; experiment: Cellular ELISA assay of Axin2 protein stabilization; assay type: cell-based; settings: Homo sapiens, 24 hrs, read-out: Axin AC50
Outline: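 SW480 colorectal cells seeded overnight, treated with compound, then lysed. Axin2 in lysates measured by sandwich ELISA: anti-Axin2 capture antibody coated at 1 μg/ml (pH 9.2), lysate 2 h at room temperature, biotinylated anti-Axin2 detection 2 h, then streptavidin-HRP 30 min.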

Human PARP1 = Human PARP1 (Homo sapiens (Human), UniProt P09874); experiment: PARP1 autoparsylation assay (LC/MS detection of nicotinamide); assay type: biochemical; settings: 20 nM enzyme, 250 μM β-NAD+, 60 min
Human PARP1, sequence (P09874 whole entry): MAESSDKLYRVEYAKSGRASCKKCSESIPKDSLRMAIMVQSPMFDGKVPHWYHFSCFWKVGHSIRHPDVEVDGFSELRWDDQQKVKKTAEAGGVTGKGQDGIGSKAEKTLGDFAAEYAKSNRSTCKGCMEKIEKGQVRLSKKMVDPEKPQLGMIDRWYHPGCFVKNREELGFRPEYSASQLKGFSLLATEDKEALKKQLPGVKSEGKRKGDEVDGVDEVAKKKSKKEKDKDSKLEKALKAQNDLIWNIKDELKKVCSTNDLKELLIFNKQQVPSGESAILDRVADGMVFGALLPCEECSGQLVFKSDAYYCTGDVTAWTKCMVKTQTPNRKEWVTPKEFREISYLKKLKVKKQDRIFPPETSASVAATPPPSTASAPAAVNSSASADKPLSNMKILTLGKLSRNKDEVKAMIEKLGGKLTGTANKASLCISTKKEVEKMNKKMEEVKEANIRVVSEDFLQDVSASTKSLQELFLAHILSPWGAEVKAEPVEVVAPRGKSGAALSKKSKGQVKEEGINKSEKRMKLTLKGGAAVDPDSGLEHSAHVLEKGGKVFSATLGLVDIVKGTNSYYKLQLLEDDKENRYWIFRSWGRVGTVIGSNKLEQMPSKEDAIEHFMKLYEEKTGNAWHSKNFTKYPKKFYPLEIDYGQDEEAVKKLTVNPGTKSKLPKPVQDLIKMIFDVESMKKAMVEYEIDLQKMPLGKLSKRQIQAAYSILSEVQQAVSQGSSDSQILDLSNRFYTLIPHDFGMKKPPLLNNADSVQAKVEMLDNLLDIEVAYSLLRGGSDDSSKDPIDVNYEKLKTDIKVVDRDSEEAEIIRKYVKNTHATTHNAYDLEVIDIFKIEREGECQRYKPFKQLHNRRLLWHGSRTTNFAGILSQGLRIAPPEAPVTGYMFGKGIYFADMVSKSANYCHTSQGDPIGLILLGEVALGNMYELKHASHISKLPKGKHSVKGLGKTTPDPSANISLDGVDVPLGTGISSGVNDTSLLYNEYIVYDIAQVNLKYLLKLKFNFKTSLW
Experimental: as §1

[3] = biological target: tankyrase 2 protein PARP domain, TNKS2P (Homo sapiens (Human), UniProt Q9H2K2); experiment: TNKS2 autoparsylation assay (LC/MS detection of nicotinamide); settings: read-out: TNKS2 AP IC50, 20 nM enzyme, 250 μM β-NAD+, 60 min
tankyrase 2 protein PARP domain, TNKS2P, sequence (Q9H2K2 959-1164): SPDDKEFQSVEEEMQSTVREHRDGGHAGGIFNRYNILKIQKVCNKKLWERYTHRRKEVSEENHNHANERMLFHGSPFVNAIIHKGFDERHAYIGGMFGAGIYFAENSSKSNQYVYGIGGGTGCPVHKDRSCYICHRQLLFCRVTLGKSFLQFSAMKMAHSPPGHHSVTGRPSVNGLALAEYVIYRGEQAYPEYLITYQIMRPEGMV
Experimental: Biochemical Assay to Determine Compound Inhibition of TNKS Enzyme Activity
The autoparsylation activity of the TNKS 1/2 or PARP1/2 enzymes was measured by the liquid chromatography-mass spectrometry (LC/MS) detection of nicotinamide as readout. Compound activity in inhibiting the TNKS and PARP autoparsylation was evaluated by IC50 measurements. […] For the background control wells, 10 μL of the 5× quenching solution per well was added prior to the addition of β-NAD^+. The % Inhibition was calculated as: (Control−Sample)/(Control−Background)*100.

[4] = biological target: human tankyrase 1 PARP catalytic domain, TNKS1P (Homo sapiens (Human), UniProt O95271); experiment: TNKS1 autoparsylation assay (LC/MS detection of nicotinamide); settings: read-out: TNKS1 AP IC50, 20 nM enzyme, 250 μM β-NAD+, 60 min
human tankyrase 1 PARP catalytic domain, TNKS1P, sequence (O95271 1112-1317): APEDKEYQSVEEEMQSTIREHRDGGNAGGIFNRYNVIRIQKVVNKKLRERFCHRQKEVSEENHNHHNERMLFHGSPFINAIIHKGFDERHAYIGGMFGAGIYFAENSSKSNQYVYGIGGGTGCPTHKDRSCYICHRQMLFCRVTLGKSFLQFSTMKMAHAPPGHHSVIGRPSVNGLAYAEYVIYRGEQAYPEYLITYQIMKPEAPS

[5] = test system: Non-small lung cancer ABC-1 cells; experiment: Cellular proliferation assay (CellTiter-Glo); assay type: cell-based; settings: Homo sapiens, 72 h; ABC-1 cells, 3 days of compound treatment; read-out: ABC-1 IC50
Experimental: Cellular Proliferation Assay to Determine Compound Inhibition of Cancer Cell Growth
Viable cells were measured after 3 days of compound treatment using the CellTiter-Glo assay (Promega, G7570). Assay was performed following the manufacture protocol.

[6] = test system: Wnt ligand-induced signaling in HEK293 cells; experiment: Wnt-responsive Super-TOpFlash (STF) luciferase reporter gene assay; assay type: cell-based; settings: Homo sapiens, Wnt3A condition medium
Outline: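 HEK293 cells (8000/well, 5% FBS medium) treated with 20% mouse L-cell Wnt3A conditioned medium plus compounds in 10-point serial dilution; luciferase read next day. Inhibition calculated relative to Wnt3A-induced signal without compound and background without Wnt3A CM or compound.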

PARP2, sequence (O88554 whole entry): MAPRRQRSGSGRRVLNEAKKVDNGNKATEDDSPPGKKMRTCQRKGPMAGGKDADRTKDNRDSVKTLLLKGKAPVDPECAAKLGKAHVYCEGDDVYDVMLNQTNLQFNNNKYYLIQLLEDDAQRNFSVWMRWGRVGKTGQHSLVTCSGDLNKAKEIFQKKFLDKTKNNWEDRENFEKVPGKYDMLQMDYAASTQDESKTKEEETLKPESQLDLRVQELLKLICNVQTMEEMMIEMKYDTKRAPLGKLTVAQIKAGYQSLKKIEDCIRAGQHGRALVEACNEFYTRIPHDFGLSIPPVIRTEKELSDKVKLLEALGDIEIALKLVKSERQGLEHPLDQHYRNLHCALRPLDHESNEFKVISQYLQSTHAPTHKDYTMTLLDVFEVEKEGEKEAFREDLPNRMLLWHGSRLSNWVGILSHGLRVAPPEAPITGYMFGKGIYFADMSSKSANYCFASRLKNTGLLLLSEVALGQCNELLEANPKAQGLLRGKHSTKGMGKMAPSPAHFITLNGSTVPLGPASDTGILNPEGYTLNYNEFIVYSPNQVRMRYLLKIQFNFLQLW

| SMILES | HSV viral growth [1] | HSV viral protein expression [1] | IC50 (PARP2) [µM] | AC50 [2] [nM] | IC50 (Human PARP1) [µM] | IC50 [3] [nM] | IC50 [4] [nM] | IC50 [5] [nM] | IC50 [6] [nM] |
| --- | --- | --- | --- | --- | --- | --- | --- | --- | --- |
| Oc1nc(-c2ccc(C(F)(F)F)cc2)nc2c1CSCC2 [XAV939] | decreased viral growth | suppressed HSV viral protein expression | – | – | – | – | – | – | – |
| CC(C)N(Cc1nc2c(c(=O)[nH]1)COCC2)C(=O)CN1CCC(C(=O)c2ccc(F)cc2)CC1 [Example 33, 2-(4-(4-Fluorobenzoyl)piperidin-1-yl)-N-isopropyl-N-((4-oxo-4,5,7,8-tetrahydro-3H-pyrano[4,3-d]pyrimidin-2-yl)methyl)acetamide] | – | – | > 19 | 2800 ± 1400 | > 19 | 20 ± 1 | 95 ± 1 | 690 ± 100 | 59 ± 20 |
| Cc1ccc(C(=O)C2CCN(CC(=O)NCc3nc4c(c(=O)[nH]3)COCC4)CC2)cc1 [Example 83, 2-[4-(4-Methyl-benzoyl)-piperidin-1-yl]-N-(4-oxo-3,5,7,8-tetrahydro-4H-pyrano[4,3-d]pyrimidin-2-ylmethyl)-acetamide] | – | – | 2.3 ± 0.36 | > 10000 | 8.3 ± 3 | 18 ± 2 | 64 | > 10000 | > 10000 |
| O=C(c1ccc(F)cc1)C1CCN(CC(=O)N(Cc2nc3c(c(=O)[nH]2)COCC3)CC(F)F)CC1 [Example 45, N-(2,2-Difluoro-ethyl)-2-[4-(4-fluoro-benzoyl)-piperidin-1-yl]-N-(4-oxo-3,5,7,8-tetrahydro-4H-pyrano[4,3-d]pyrimidin-2-ylmethyl)-acetamide] | – | – | > 19 | 450 ± 90 | > 19 | 10.2 ± 7.4 | 37 ± 17 | 509 ± 47 | 16 ± 9 |
| O=C(c1ccc(F)cc1)C1CCN(CC(=O)N(Cc2nc3c(c(=O)[nH]2)COCC3)Cc2ccccc2F)CC1 [Example 39, 2-(4-(4-Fluorobenzoyl)piperidin-1-yl)-N-(2-fluorobenzyl)-N-((4-oxo-4,5,7,8-tetrahydro-3H-pyrano[4,3-d]pyrimidin-2-yl)methyl)acetamide] | – | – | > 19 | 112 ± 18 | > 19 | 9 ± 1 | 43 ± 1 | 230 ± 99 | 17 ± 3 |
| CC(c1cccs1)N(Cc1nc2c(c(=O)[nH]1)COCC2)C(=O)CN1CCC(C(=O)c2ccc(F)cc2)CC1 (centres unmarked) [Example 49, 2-[4-(4-Fluoro-benzoyl)-piperidin-1-yl]-N-(4-oxo-3,5,7,8-tetrahydro-4H-pyrano[4,3-d]pyrimidin-2-ylmethyl)-N-(1-thiophen-2-yl-ethyl)-acetamide] | – | – | > 19 | 86 ± 3 | > 19 | 16.5 ± 0.7 | 47.5 ± 3.5 | 170 | 16 ± 4 |
| CC[C@H](C)N(Cc1nc2c(c(=O)[nH]1)COCC2)C(=O)CN1CCC(C(=O)c2ccc(F)cc2)CC1 [Example 31, (S)—N-sec-Butyl-2-(4-(4-fluorobenzoyl)piperidin-1-yl)-N-((4-oxo-4,5,7,8-tetrahydro-3H-pyrano[4,3-d]pyrimidin-2-yl)methyl)acetamide] | – | – | > 19 | 1100 ± 180 | > 19 | 13 ± 1 | 38 ± 3 | 630 ± 400 | 37 ± 9 |
| COc1ccc(C(=O)C2CCN(CC(=O)NCc3nc4c(c(=O)[nH]3)COCC4)CC2)cc1 [Example 67, 2-(4-(4-Methoxybenzoyl)piperidin-1-yl)-N-((4-oxo-4,5,7,8-tetrahydro-3H-pyrano[4,3-d]pyrimidin-2-yl)methyl)acetamide] | – | – | 3.64 ± 0.63 | 16 ± 3 | 10 ± 3.2 | 12 ± 2 | 28 ± 6 | 45 | 5.3 ± 4.1 |
| O=C(CN1CCC(C(=O)c2ccc(OC3CCOCC3)cc2)CC1)NCc1nc2c(c(=O)[nH]1)COCC2 [Example 87, N-(4-Oxo-3,5,7,8-tetrahydro-4H-pyrano[4,3-d]pyrimidin-2-ylmethyl)-2-{4-[4-(tetrahydro-pyran-4-yloxy)-benzoyl]-1-yl}-acetamide] | – | – | 2.84 ± 0.33 | 40 ± 6 | 5.8 ± 1.3 | 29 | 67 ± 4 | 32 | 14 ± 1 |
| O=C(c1ccc(F)cc1)C1CCN(CC(=O)N(Cc2nc3c(c(=O)[nH]2)COCC3)CC(F)(F)F)CC1 [Example 48, 2-[4-(4-Fluoro-benzoyl)-piperidin-1-yl]-N-(4-oxo-3,5,7,8-tetrahydro-4H-pyrano[4,3-d]pyrimidin-2-ylmethyl)-N-(2,2,2-trifluoro-ethyl)-acetamide] | – | – | > 19 | 610 ± 240 | > 19 | 14 ± 1 | 55 ± 3 | 790 ± 180 | 14 ± 6 |

— US9181266B2, “2-piperidin-1-yl-acetamide compounds for use as tankyrase inhibitors” (NOVARTIS AG, priority 2011, dated 2015)
